US20260001946A1, “TREATMENT OF A DISEASE OR CONDITION IN A TISSUE ORIGINATING FROM THE ENDODERM” (BT Bidco, Inc., priority 2018, published 2026)
Where a name gives a salt, the structure may show the parent alone. Read-outs that look alike come from different tables or passages of the source.

Key:
[1] = Tacrolimus blood concentration and AUC0-12 hours after IC or PO administration; conditions: female, Yorkshire-Cross, swine, in vivo
Procedure: FIG. 77 is a graph showing the mean concentration of tacrolimus in the blood 1 hour, 2 hours, 3 hours, 4 hours, 6 hours and 12 hours after intracecal (IC) or oral administration (PO) of tacrolimus to swine as described in Example 13.
FIG. 78 is a graph showing the AUC0-12 hours of tacrolimus in the blood after intracecal (IC) or oral administration (PO) of tacrolimus in swine as described in Example 13.
FIG. 87 is a graph showing the mean concentration of tacrolimus in the blood of swine 1 hour, 2 hours, 3 hours, 4 hours, 6 hours, and 12 hours after intracecal (IC) or oral administration (PO) of tacrolimus as described in Example 10.
FIG. 88 is a graph showing the AUC0-12 hours of tacrolimus in the blood of swine after intracecal (IC) or oral administration (PO) of tacrolimus as described in Example 10.

[2] = female, Yorkshire-Cross, swine, in vivo, po, 0.09 mg/kg
Procedure: FIG. 76 is a graph showing the mean concentration of tacrolimus in the cecum tissue and the proximal colon tissue 12 hours after intracecal or oral administration of tacrolimus to swine as described in Example 10.
FIG. 79 is a graph showing the mean concentration of tacrolimus in the cecum tissue, the proximal colon tissue, the spiral colon tissue, the transverse colon tissue, and the distal colon tissue after intracecal (IC) or oral administration (PO) of tacrolimus in swine as described in Example 13. ****P<0.0001, ***P<0.001.
FIG. 90 is a graph showing the mean concentration of tacrolimus in the cecum, the proximal colon, the spiral colon, the transverse colon, and the distal colon of swine after intracecal (IC) or oral administration (PO) of tacrolimus as described in Example 10.

[3] = Tissue, plasma, rectal sample and GI content pharmacokinetics of tacrolimus, oral vs intra-cecal ingestible device (Example 10); design: species or system Yorkshire-Cross farm swine; conditions: in vivo
Procedure: The primary objective of this study was to compare the tissue, plasma, rectal sample, and GI content pharmacokinetics of tacrolimus through oral versus intra-cecal ingestible device delivery in normal Yorkshire-Cross farm swine.
(§1) No further randomization procedure was employed.
Animals in Group 1 received an ingestible device containing 0.8 mL of vehicle solution (80% alcohol, 20% HCO-60). Animals in Group 2 received orally […] liquid formulation of tacrolimus at 4 mg/0.8 mL per animal (Prograf: 5 mg/mL). Animals in Group 3 received intra-cecally an ingestible device containing tacrolimus at 1 mg in 0.8 mL per ingestible device. Animals in Group 4 received intra-cecally an ingestible device containing tacrolimus at 2 mg in 0.8 mL per ingestible device. Animals in Group 5 received intra-cecally an ingestible device containing tacrolimus at 4 mg in 0.8 mL per ingestible device. To control for potential confounding effects of the surgery, all groups fast on Day −11 at least 24 hr before being subjected to anesthesia followed by surgical placements of a cecal port by a veterinary surgeon at Day −10. All animals were fasted for at least 12 hr prior to dosing on Day 1. Animals were dosed via either intra-cecal dosing (IC) or oral dosing (PO) at Day 1 (between 6-8 p.m.). All animals resumed feeding at approximately 4 hours after dose (11-12 p.m. after dosing).
Animals in Group 1 (Vehicle Control) were administered a single intra-cecal ingestible device containing 0.8 mL Vehicle solution (80% alcohol, 20% castor oil (HCO-60) on Day 1. On Day −10 the animals were anesthetized, and a veterinary surgeon surgically placed an intra-cecal port in each animal. On Day 1, each animal was placed into a sling then a single intra-cecal ingestible device containing 0.8 mL vehicle solution (80% alcohol, 20% castor oil (HCO-60)) is introduced by the veterinary surgeon into the cecum via the cecal port in each animal. Following ingestible device placement, the animals were removed from the slings and placed back into their pens with water. All animals resumed feeding at approximately 4 hours after dose. […] A total of 60 samples were collected.
Approximately 200˜400 mg of rectal content were collected, if available, with a fecal swab (Copan Diagnostics Nylon Flocked Dry Swabs, 502CS01). The fecal swab was pre-weighed and weighed after collection in the collection tube (Sterile Tube and Cap No Media, PFPM913S), and the sample weight was recorded. The fecal swab was broken via the breakpoint, and was stored in the collection tube, and immediately frozen at −70° C. […] Immediately following euthanasia, tissue was collected.
For tissue necropsy, small intestine fluid and cecal fluid were collected separately from all the animals into two separate square plastic bottles, and stored at −20° C. The length and diameter of the cecum and the colon was measured from one animal in each group and recorded for reference. Tissues were collected for pharmacokinetic analyses and include mesenteric lymph nodes, a Peyer's Patch, and five gastrointestinal sections, including cecum, proximal colon, transverse colon, distal colon, and rectum. All samples were weighed, and the tissue sample weights were recorded. […] Around 3 grams of the total punched sample were collected into a pre-weighed 15-mL conical tube, and the tissue weight was recorded. […]

[4] = Pharmacokinetics of oral vs intra-cecal tacrolimus: blood, rectal contents, GI tissue and luminal content (Example 13); design: species or system Yorkshire-Cross farm swine; conditions: in vivo
From the text: as §1

[5] = test system: IL-6, GM-CSF, IL-15, IL-2, IL-12, IL-13, TNF-α, INF-γ

SMILES: C=CC[C@@H]1/C=C(\C)C[C@H](C)C[C@H](OC)[C@H]2O[C@@](O)(C(=O)C(=O)N3CCCC[C@H]3C(=O)O[C@H](/C(C)=C/[C@@H]3CC[C@@H](O)[C@H](OC)C3)[C@H](C)[C@@H](O)CC1=O)[C@H](C)C[C@@H]2OC [tacrolimus]
- concentration at 12 h ([1]; 0.02 mg/kg): 0.746 ± 0.038 ng/mL
- concentration at 12 h ([1]; 0.04 mg/kg): 1.96 ± 0.491 ng/mL
- concentration at 12 h ([1]; 0.09 mg/kg): 4.35 ± 0.516 ng/mL
- concentration at 12 h ([1]; po, 0.09 mg/kg): 0.568 ± 0.291 ng/mL
- Tissue(mean) (ng/g)/AUG(0-12 hr) (ng · hr/mL) Ratio [2]: 0
- Tissue(mean) (ng/g)/AUG(0-12 hr) (ng · hr/mL) Ratio ([2]; 12 h): 0
- exposure AUC [3]: < 2000-12 ng·h/mL
- mean concentration of tacrolimus in the cecum tissue and the proximate colon tissue [3]: higher
- tissue (spiral and transverse colon) and luminal content (spiral, transverse, and distal colon) concentrations [3]: Significantly higher
- level of tacrolimus in tissue ([3]; po): No measurable level
- rectal content concentration ([3]; po): no detectable level
- concentration at 12 h ([4]; female, Yorkshire-Cross, swine, 0.02 mg/kg, Trough (12 hr)): 0.746 ± 0.038 ng/mL
- concentration at 12 h ([4]; female, Yorkshire-Cross, swine, 0.04 mg/kg, Trough (12 hr)): 1.96 ± 0.491 ng/mL
- concentration at 12 h ([4]; female, Yorkshire-Cross, swine, 0.09 mg/kg, Trough (12 hr)): 4.35 ± 0.561 ng/mL
- Ratio Tissue(mean)/Trough(12 hr) ([4]; female, Yorkshire-Cross, swine, po, 0.09 mg/kg, 12 h): 0
- Kp at 12 h ([4]; female, Yorkshire-Cross, swine, po, 0.09 mg/kg, Ratio Tissue(mean)/Trough(12 hr)): 0
- concentration at 12 h ([4]; female, Yorkshire-Cross, swine, po, 0.09 mg/kg, Trough (12 hr)): 0.568 ± 0.291 ng/mL
- concentration at 12 h ([4]; female, Yorkshire-Cross, swine, po, 0.09 mg/kg, Trough level (12 hr)): 0.568 ng/mL
- mean concentration of tacrolimus in the spiral colon lumen, the transverse colon lumen, and the distal colon lumen [4]: statistically higher
- mean concentration of tacrolimus in the spiral colon tissue and the transverse colon tissue [4]: statistically higher
- mean concentration and AUC0-12 hours of tacrolimus in the blood ([4]; po, 0.09 mg/kg): higher

SMILES: C[C@@H]1CCN(C(=O)CC#N)C[C@@H]1N(C)c1ncnc2[nH]ccc12 [tofacitinib citrate]
- IL-6 expression in plasma ([5]; PO or IC administration, 1 h and 3 h post-treatment): inhibition of IL-6 expression
- inhibition of IL-6 expression in colon tissue ([5]; all IC treated groups and high dose PO group (45 mg/kg) (FIG. 112B)): sustained through 24 h post-dose
- GM-CSF levels in plasma or colon tissue ([5]; between IC and PO treatment groups): nor was there a significant difference
- IL-6 inhibition in colon tissue ([5]; low dose PO group (15 mg/kg), by 12 h post-dose): Recovery from IL-6 inhibition was observed
